Patent US7214690B2, “Tricyclic quinolinone and tricyclic quinoline androgen receptor modulator compounds and methods” (Ligand Pharmaceuticals Incorporated, priority 2001, dated 2007)
Read-outs that look alike come from different tables or passages of the source.

Assays:
ER = target: T1, ER (Homo sapiens, UniProt P03372); test: co-transfection assay, ER; type: cell-based
T1 construct: expressed in transfected cells; host or cells: background cell substantially devoid of endogenous IRs (CV-1 described for the co-transfection assay)
T1 sequence (P03372 1-595): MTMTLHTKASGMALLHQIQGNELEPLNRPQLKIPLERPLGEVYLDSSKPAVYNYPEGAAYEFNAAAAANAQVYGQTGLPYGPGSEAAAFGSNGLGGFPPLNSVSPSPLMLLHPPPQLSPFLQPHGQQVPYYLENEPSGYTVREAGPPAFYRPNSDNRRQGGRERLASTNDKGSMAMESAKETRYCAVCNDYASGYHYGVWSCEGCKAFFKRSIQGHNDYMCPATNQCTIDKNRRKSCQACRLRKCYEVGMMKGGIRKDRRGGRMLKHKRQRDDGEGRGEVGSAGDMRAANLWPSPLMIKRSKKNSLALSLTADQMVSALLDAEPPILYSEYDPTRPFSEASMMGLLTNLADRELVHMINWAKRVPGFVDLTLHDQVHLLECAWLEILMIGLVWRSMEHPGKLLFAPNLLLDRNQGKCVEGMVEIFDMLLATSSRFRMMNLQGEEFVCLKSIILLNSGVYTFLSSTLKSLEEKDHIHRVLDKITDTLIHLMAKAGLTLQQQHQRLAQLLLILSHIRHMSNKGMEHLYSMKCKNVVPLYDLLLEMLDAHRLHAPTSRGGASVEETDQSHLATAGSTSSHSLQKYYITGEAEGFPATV
Description: (§1) CV-1 cells (African green monkey kidney fibroblasts) were cultured in the presence of Dulbecco's Modified Eagle Medium (DMEM) supplemented with 10% charcoal resin-stripped fetal bovine serum (CH-FBS) then transferred to 96-well microtiter plates one day prior to transfection.
(§2) Three to four replicates were used for each sample.
(§3) After 40 hours, the cells were washed with PBS, lysed with a Triton X-100-based buffer and assayed for LUC and β-Gal activities using a luminometer or spectrophotometer, respectively. For each replicate, the normalized response (NR) was calculated as: LUC response/β-Gal rate • where β-Gal rate=β-Gal/β-Gal incubation time.

human AR = target: T2, human AR (Homo sapiens, UniProt P10275); test: co-transfection assay, hAR in CV-1 cells (MTV-LUC reporter); type: cell-based; settings: for AR Agonist CV-1 Cells Efficacy: agonist mode, luciferase production relative to DHT; for AR Agonist CV-1 Cells Efficacy / AR Antagonist CV-1 Cells Efficacy: hAR in CV-1 cells; for AR Antagonist CV-1 Cells Efficacy: antagonist mode, maximal inhibition of DHT-induced luciferase production
T2 construct: expressed in transfected cells; host or cells: CV-1 cells (African green monkey kidney fibroblasts)
T2 sequence (P10275 1-920): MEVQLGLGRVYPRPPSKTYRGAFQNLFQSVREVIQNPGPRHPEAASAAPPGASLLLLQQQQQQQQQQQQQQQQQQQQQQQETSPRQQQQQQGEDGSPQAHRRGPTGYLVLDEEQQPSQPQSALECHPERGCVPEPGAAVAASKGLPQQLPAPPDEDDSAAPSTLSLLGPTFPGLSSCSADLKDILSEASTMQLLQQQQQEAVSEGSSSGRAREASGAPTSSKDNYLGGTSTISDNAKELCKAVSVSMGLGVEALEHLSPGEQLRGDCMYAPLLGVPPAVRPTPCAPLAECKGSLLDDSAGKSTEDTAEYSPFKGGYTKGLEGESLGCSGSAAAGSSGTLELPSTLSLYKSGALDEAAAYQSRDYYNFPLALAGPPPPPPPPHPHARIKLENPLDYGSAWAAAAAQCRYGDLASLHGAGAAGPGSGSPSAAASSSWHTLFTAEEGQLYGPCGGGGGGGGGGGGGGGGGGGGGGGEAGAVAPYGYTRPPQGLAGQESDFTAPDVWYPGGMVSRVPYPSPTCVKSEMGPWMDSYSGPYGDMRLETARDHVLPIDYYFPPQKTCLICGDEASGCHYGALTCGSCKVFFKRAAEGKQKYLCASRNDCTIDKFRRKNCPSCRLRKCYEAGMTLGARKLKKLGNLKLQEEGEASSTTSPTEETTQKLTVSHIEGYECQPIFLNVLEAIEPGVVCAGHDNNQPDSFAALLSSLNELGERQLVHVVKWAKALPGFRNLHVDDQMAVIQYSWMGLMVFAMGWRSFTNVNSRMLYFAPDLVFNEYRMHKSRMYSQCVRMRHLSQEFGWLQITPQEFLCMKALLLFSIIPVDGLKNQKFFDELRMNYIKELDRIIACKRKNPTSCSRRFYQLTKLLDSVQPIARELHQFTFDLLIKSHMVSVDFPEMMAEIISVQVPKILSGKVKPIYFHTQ
From the text: The co-transfection assay provides a method for identifying functional agonists and partial agonists that mimic, or antagonists that inhibit, the effect of native hormones and quantifying their activity for responsive IR proteins. In this regard, the co-transfection assay mimics an in vivo system in the laboratory. Importantly, activity in the co-transfection assay correlates very well with known in vivo activity, such that the co-transfection assay functions as a qualitative and quantitative predictor of a tested compounds in vivo pharmacology. , See e.g., T. Berger et al. 41 J. Steroid Biochem. Molec.
as §1
The reporter plasmid, MTV-LUC, contains the cDNA for firefly luciferase (LUC) under control of the mouse mammary tumor virus (MTV) long terminal repeat, a conditional promoter containing an androgen response element. See e.g., Berger et al. supra. In addition, pRS-β-Gal, coding for constitutive expression of E. coli β-galactosidase (β-Gal), was included as an internal control for evaluation of transfection efficiency and compound toxicity.
as §2, §3

CC(C)(O)C(=O)Nc1ccc([N+](=O)[O-])c(C(F)(F)F)c1 [Flut, 2-hydroxyflutamide, reference compound]
EC50 (ER; agonist mode, read-out: ER Potency Agon): > 10000 nM | IC50 (ER; antagonist mode, read-out: ER Potency Antag): > 10000 nM

CCCC1COc2c(ccc3[nH]c(=O)cc(C(F)(F)F)c23)N1C (racemic) [Compound 117, (±)-2,3,4,7-Tetrahydro-4-methyl-3-propyl-10-(trifluoromethyl)-8H-[1,4]oxazino[2,3-f]quinolin-8-one]
EC50 (human AR): > 10000 nM | AR Agonist CV-1 Cells Efficacy (human AR): na (not active (i.e. efficacy of <20 and potency of >10,000 nM for the cotransfection assay) | AR Antagonist CV-1 Cells Efficacy (human AR): 74%

CN1CC(C)(C)Oc2c1ccc1[nH]c(=O)cc(C(F)(F)F)c21 [Compound 138, 2,3,4,7-Tetrahydro-2,2,4-trimethyl-10-(trifluoromethyl)-8H-[1,4]oxazino[2,3-f]quinolin-8-one]
EC50 (human AR): > 10000 nM | AR Agonist CV-1 Cells Efficacy (human AR): na (not active (i.e. efficacy of <20 and potency of >10,000 nM for the cotransfection assay) | AR Antagonist CV-1 Cells Efficacy (human AR): 90%

C[C@@H]1COc2c(ccc3[nH]c(=O)cc(C(F)(F)F)c23)N1C [Compound 102, (3R)-2,3,4,7-Tetrahydro-3,4-dimethyl-10-(trifluoromethyl)-8H-[1,4]oxazino[2,3-f]quinolin-8-one]
EC50 (human AR): > 10000 nM | AR Agonist CV-1 Cells Efficacy (human AR): na (not active (i.e. efficacy of <20 and potency of >10,000 nM for the cotransfection assay) | AR Antagonist CV-1 Cells Efficacy (human AR): 32%

CCN1c2ccc3[nH]c(=O)cc(C(F)(F)F)c3c2OC[C@H]1C(C)C [Compound 122, (3R)-4-Ethyl-2,3,4,7-tetrahydro-3-isopropyl-10-(trifluoromethyl)-8H-[1,4]oxazino[2,3-f]quinolin-8-one]
EC50 (human AR): 270 nM | AR Agonist CV-1 Cells Efficacy (human AR): 76% | AR Antagonist CV-1 Cells Efficacy (human AR): na (not active (i.e. efficacy of <20 and potency of >10,000 nM for the cotransfection assay)

CC[C@@H]1COc2c(ccc3[nH]c(=O)cc(C(F)(F)F)c23)N1CC [Compound 109, (3R)-3,4-Diethyl-2,3,4,7-tetrahydro-10-(trifluoromethyl)-8H-[1,4]oxazino[2,3-f]quinolin-8-one]
EC50 (human AR): 411 nM | AR Agonist CV-1 Cells Efficacy (human AR): 29% | AR Antagonist CV-1 Cells Efficacy (human AR): na (not active (i.e. efficacy of <20 and potency of >10,000 nM for the cotransfection assay)

CC(=O)S[C@@H]1CC2=CC(=O)CC[C@]2(C)[C@H]2CC[C@@]3(C)[C@@H](CC[C@@]34CCC(=O)O4)[C@H]12 [Spir, spironolactone, reference compound]
EC50 (ER): > 10000 nM | IC50 (ER): > 10000 nM

CC[C@@H]1COc2c(ccc3[nH]c(=O)cc(C(F)(F)F)c23)N1 [Compound 107, (3R)-3-Ethyl-2,3,4,7-tetrahydro-10-(trifluoromethyl)-8H-[1,4]oxazino[2,3-f]quinolin-8-one]
EC50 (human AR): 301 nM | AR Agonist CV-1 Cells Efficacy (human AR): 17% | AR Antagonist CV-1 Cells Efficacy (human AR): 56%

C[C@@H]1Oc2c(ccc3[nH]c(=O)cc(C(F)(F)F)c23)N(CC(F)(F)F)[C@@H]1C (racemic) [Compound 136, (±)-(2S,3R)-2,3,4,7-Tetrahydro-2,3-dimethyl-4-(2,2,2-trifluoroethyl)-10-(trifluoromethyl)-8H-[1,4]oxazino[2,3-f]quinolin-8-one]
EC50 (human AR): 34 nM | AR Agonist CV-1 Cells Efficacy (human AR): 61% | AR Antagonist CV-1 Cells Efficacy (human AR): 24%

C=CCN1c2ccc3[nH]c(=O)cc(C(F)(F)F)c3c2OC[C@H]1C(C)C [Compound 126, (3R)-4-Allyl-2,3,4,7-tetrahydro-3-isopropyl-10-(trifluoromethyl)-8H-[1,4]oxazino[2,3-f]quinolin-8-one]
EC50 (human AR): 35 nM

C[C@@H]1COc2c(ccc3[nH]c(=O)cc(C(F)(F)F)c23)N1CC(F)(F)F [Compound 104, (3R)-2,3,4,7-Tetrahydro-3-methyl-4-(2,2,2-trifluoroethyl)-10-(trifluoromethyl)-8H-[1,4]oxazino[2,3-f]quinolin-8-one]
EC50 (human AR): 7 nM | AR Agonist CV-1 Cells Efficacy (human AR): 73% | AR Antagonist CV-1 Cells Efficacy (human AR): na (not active (i.e. efficacy of <20 and potency of >10,000 nM for the cotransfection assay)

CCCC1COc2c(ccc3[nH]c(=O)cc(C(F)(F)F)c23)N1 (racemic) [Compound 116, (±)-2,3,4,7-Tetrahydro-3-propyl-10-(trifluoromethyl)-8H-[1,4]oxazino[2,3-f]quinolin-8-one]
EC50 (human AR): > 10000 nM | AR Agonist CV-1 Cells Efficacy (human AR): na (not active (i.e. efficacy of <20 and potency of >10,000 nM for the cotransfection assay) | AR Antagonist CV-1 Cells Efficacy (human AR): 79%
